Molecules are shown by their SMILES. Converted amounts (≈) assume the structure as drawn. The source made the active and inactive calls. No cut-off for these calls is given here.

One test has as its system Biomphalaria glabrata. Briefly: Molluscicidal activity against Biomphalaria glabrata at 200 ppm. It counts as functional, organism-based.
A short description of test [1]: Inhibition of yeast alpha-glucosidase. Details: species or system Saccharomyces cerevisiae.

A word on the IC50: it is the point on the concentration scale where inhibition reaches its midpoint. In the case of `COc1ccc(/C=C/c2cc(O)cc(O[C@@H]3O[C@H](CO)[C@@H](O)[C@H](O)[C@H]3O)c2)cc1`, the result in the test on Biomphalaria glabrata was inactive. Besides, in test [1], the IC50 was 280 µg/mL (≈ 692 µM).
The corresponding values for `COc1ccc(/C=C/c2cc(O)cc(O[C@@H]3O[C@H](CO)[C@@H](O)[C@H](O)[C@H]3O)c2)cc1O` [RHAPONTIN] are “inactive” and 600 µg/mL (≈ 1430 µM).

(Values after ChEMBL document CHEMBL1158976, “Efficient Isolation of Glycosidase Inhibitory Stilbene Glycosides from Rheum palmatum” (J Nat Prod, 1991).)
